Data reported in patent US20220265817A1, “THERAPEUTIC COMPOSITIONS AND METHODS FOR TREATING HEPATITIS B” (priority 2017, published 2022).
Read-outs that look alike come from different tables or passages of the source.

Experiments:
[1] = test system: D type HBV in primary human hepatocytes; test: microbe, parasite or virus in culture; type: cell-based; conditions: Hepatitis B virus, Hepatocyte; for EC50: determined in an earlier separate experiment
Description: (§1) The mouse liver perfusion was applied to isolate PHHs. The isolated hepatocytes were further purified by Percoll. The cells were resuspended with culture media and seeded into the 96-well plates (6×10^4 cell/well) or 48-well plates (1.2×10^5 cell/well). The PHHs were infected with a D type HBV one day post seeding (day 1).
(§2) On day 2, the test compounds were diluted and added into the cell culture plates. The culture media containing the compounds were refreshed every other day. The cell culture supernatants were collected on day 8 for the HBV DNA and antigen determinations.
(§3) The compounds were tested at 7 concentrations, 3-fold dilution, in triplicate.
(§4) Two compounds were tested at 5×5 matrix, in triplicate plates.
DNA in the culture supernatants harvested on days 8 were isolated with QIAamp 96 DNA Blood Kit (Qiagen-51161). For each sample, 100 μl of the culture supernatants was used to extract DNA. The DNA was eluted with 100 μl, 150 μl or 180 μl of AE. HBV DNA in the culture supernatants was quantified by qPCR. The combination effect was analyzed by the MacSynergy software. The primers are described below.

[2] = test system: D type HBV in primary human hepatocytes (HBsAg); test: microbe, parasite or virus in culture; type: cell-based; conditions: Hepatitis B virus, Hepatocyte
Description: as §1, §2, §3, §4
HBsAg/HBeAg in the culture supernatants harvested on days 8 were measured by the HBsAg/HBeAg ELISA kit (Autobio) according to the manual. The samples were diluted with PBS to get the signal in the range of the standard curve. The inhibition rates were calculated with the formula below. The combination effect was analyzed by the MacSynergy software.
% Inh. HBsAg=[1-HBsAg quantity of sample/HBV quantity of DMSO control]×100.

In the case of O=C(Nc1ccc(F)c(F)c1)c1cc(S(=O)(=O)NC2CCCC2)ccc1F [Compound 22], the inhibition at 0.061728 µM ([1]; TAF 0.00 nM, COMPOUND 22 61.728 nM) is reported as 2.38%, the inhibition at 0.18519 µM ([1]; TAF 0.00 nM, COMPOUND 22 185.19 nM, read-out: AVERAGE % INHIBITION) is reported as -3.33% and the inhibition at 0.55556 µM ([1]; TAF 0.00 nM, COMPOUND 22 555.56 nM, read-out: AVERAGE % INHIBITION) is reported as 8.01%. For the same compound, the inhibition at 1.6667 µM ([1]; TAF 0.00 nM, COMPOUND 22 1666.7 nM) was 28%, the inhibition at 5 µM ([1]; TAF 0.00 nM, COMPOUND 22 5000 nM, read-out: AVERAGE % INHIBITION) was 54.7% and the inhibition at 0.06173 µM ([1]; read-out: AVERAGE % […] DNA, COMPOUND 22 61.73 nM alone) was -11.8%. It also gave an inhibition at 0.18519 µM ([1]; read-out: AVERAGE % […] DNA, COMPOUND 22 185.19 nM alone, read-out: AVERAGE % INHIBITION HBV DNA) of -9.12%, an inhibition at 0.55556 µM ([1]; read-out: AVERAGE % […] DNA, COMPOUND 22 555.56 nM alone, read-out: AVERAGE % INHIBITION HBV DNA) of -12.7% and an inhibition at 1.66667 µM ([1]; read-out: AVERAGE % […] DNA, COMPOUND 22 1666.67 nM alone) of 17.9%. For the same compound, the inhibition at 5 µM ([1]; read-out: AVERAGE % […] DNA, COMPOUND 22 5000.00 nM alone, read-out: AVERAGE % INHIBITION HBV DNA) was 63.1%, the EC50 ([1]; HBV DNA, read-out: Inhibitor EC50) was 1020 nM and the EC50 ([1]; PHH, read-out: Inhibitor B EC50 HBV DNA) was 1020 nM. It also gave an inhibition at 0.06173 µM ([2]; read-out: AVERAGE % INHIBITION HBsAg, COMPOUND 22 61.73 nM alone) of -9.16%, an inhibition at 0.18519 µM ([2]; read-out: AVERAGE % INHIBITION HBsAg, COMPOUND 22 185.19 nM alone) of -10.2% and an inhibition at 0.55556 µM ([2]; read-out: AVERAGE % INHIBITION HBsAg, COMPOUND 22 555.56 nM alone) of -3.82%. For the same compound, the inhibition at 1.66667 µM ([2]; read-out: AVERAGE % INHIBITION HBsAg, COMPOUND 22 1666.67 nM alone) was 20.6%, the inhibition at 5 µM ([2]; read-out: AVERAGE % INHIBITION HBsAg, COMPOUND 22 5000.00 nM alone) was 31% and the inhibition at 61.73 µM ([2]; read-out: AVERAGE % INHIBITION, IFNα2a 0.00 IU/mL, COMPOUND 22 61.73 μM) was -13.8%. It also gave an inhibition at 185.19 µM ([2]; read-out: AVERAGE % INHIBITION, IFNα2a 0.00 IU/mL, COMPOUND 22 185.19 μM) of -10.6%, an inhibition at 555.56 µM ([2]; read-out: AVERAGE % INHIBITION, IFNα2a 0.00 IU/mL, COMPOUND 22 555.56 μM) of -5.08% and an inhibition at 1666.67 µM ([2]; read-out: AVERAGE % INHIBITION, IFNα2a 0.00 IU/mL, COMPOUND 22 1666.67 μM) of 10.3%. It also gave an inhibition at 5000 µM ([2]; read-out: AVERAGE % INHIBITION, IFNα2a 0.00 IU/mL, COMPOUND 22 5000.00 μM) of 23.1%, an inhibition at 0.061728 µM ([2]; read-out: AVERAGE % INHIBITION, TAF 0 nM, COMPOUND 22 61.728 nM) of -0.32% and an inhibition at 0.18519 µM ([2]; read-out: AVERAGE % INHIBITION, TAF 0 nM, COMPOUND 22 185.19 nM) of 2.37%. For the same compound, the inhibition at 0.55556 µM ([2]; read-out: AVERAGE % INHIBITION, TAF 0 nM, COMPOUND 22 555.56 nM) was -2.17%, the inhibition at 1.6667 µM ([2]; read-out: AVERAGE % INHIBITION, TAF 0 nM, COMPOUND 22 1666.7 nM) was 17.7% and the inhibition at 5 µM ([2]; read-out: AVERAGE % INHIBITION, TAF 0 nM, COMPOUND 22 5000 nM) was 20.7%. For the same compound, the EC50 ([2]; read-out: Inhibitor B EC50 HBsAg) was 12.8 µM and the EC50 ([2]; read-out: Inhibitor EC50) was 12.8 µM.
